41 compounds from ChEMBL document CHEMBL4483862, “Open-source discovery of chemical leads for next-generation chemoprotective antimalarials” (2018) can be followed below.

The term pIC50 denotes the negative decadic logarithm of the IC50, by convention in mol/L. Broadly, the IC90 is the point of the concentration-response curve where the effect stands at 90%.

This experiment relates to Plasmodium berghei. Kind of experiment: Luciferase/luciferin-expressing antifolate-resistant parasites were used to infect a culture of HepG2 cells that were pre-incubated with compounds. Infected hepatocytes emit light due to the luciferase reaction. Assay results are presented as the percent inhibition of light emission compared to control. […]. The class given is functional. As to conditions: sporozoite; for IC90: read-out: LUCIFERASE INFECTION ASSAY - IC90.

The mark [1] stands for this setting: read-out: LUCIFERASE INFECTION ASSAY - IC50.

The structures appear in SMILES notation. pIC50: −log10 of the molar value. Some results are limits rather than exact numbers.

On to `Cc1[nH]c2ccccc2c1C(=O)/C(C#N)=C/c1ccc(-c2ccc(S(=O)(=O)N3CCOCC3)cc2)o1`, for which the IC90 is > 10 µM. Further, the pIC50 (FFLUC_HILL_SLOPE 49.5, FFLUC_R_SQUARED 0.839, HEPG2TOX_HILL_SLOPE 4, HEPG2TOX_R_SQUARED 0.152, PBLUC_HILL_SLOPE 1.9, PBLUC_R_SQUARED 0.247, read-out: LUCIFERASE INFECTION ASSAY - IC50) was 5.29.
Regarding `Cc1[nH]c(-c2ccccn2)nc(=O)c1CC(=O)OCc1nc2ccccc2s1`, the concentration for an effect of 90% (IC90) is > 10 µM. The pIC50 (PBLUC_HILL_SLOPE 1.8, PBLUC_R_SQUARED 0.582, read-out: LUCIFERASE INFECTION ASSAY - IC50) is 5.14.
Take `FC(F)(F)c1c(-c2ccccc2)c2cc(Cl)ccc2n1Cc1ccccc1`: the IC90 was > 8.55 µM. For the same compound, the negative logarithm of the IC50 (pIC50) (PBLUC_HILL_SLOPE 1.92, PBLUC_R_SQUARED 0.0693, read-out: LUCIFERASE INFECTION ASSAY - IC50) is 5.14.
For `O=C(Nc1ccccc1C(=O)OCCC(F)(F)F)c1ccccc1`, the 90% effect concentration (IC90) is > 10 µM. For the same compound, the pIC50 under setting [1] is < 5.00.
`C=CCNS(=O)(=O)c1ccc(C(=O)NCc2ccccc2OC(F)F)cc1`: the IC90 is > 10 µM. Moreover, under setting [1], the negative logarithm of the IC50 (pIC50) is < 5.00.
For the compound `FC(F)(F)Oc1cccc(-c2cnc3ccc(-c4cncnc4)nn23)c1`, the IC90 was 3.91 µM. Under “PBLUC_HILL_SLOPE 4.12, PBLUC_R_SQUARED 0.479, read-out: LUCIFERASE INFECTION ASSAY - IC50”, the pIC50 is 5.64.
As to `CCOc1ncccc1C(=O)NCC(c1ccc(OC)cc1)N1CCCCC1` (configuration not stated), the IC90 was > 10 µM. Under setting [1], the pIC50 is < 5.00.
For `Cc1cccc(C(=O)Nc2nc3ccccn3c2C(=O)NC2CCCC2)c1`, the IC90 was determined as 4.69 µM. Moreover, the pIC50 (HEPG2TOX_HILL_SLOPE 8.83, HEPG2TOX_R_SQUARED 0.45, PBLUC_HILL_SLOPE 2.41, PBLUC_R_SQUARED 0.415, read-out: LUCIFERASE INFECTION ASSAY - IC50) is 5.73.
`COC(=O)c1cc(Br)ccc1NC(=O)CCNC(=O)c1cccc(C)c1`: the 90% effect concentration (IC90) is > 10 µM. In addition, the pIC50 under setting [1] was < 5.00.
As for `CN(C)S(=O)(=O)c1ccc(NC(=O)COc2ccc(Oc3ccc(C(F)(F)F)cn3)cc2)cc1`, the IC90 was > 10 µM. For the same compound, under setting [1], the negative logarithm of the IC50 (pIC50) is < 5.00.
In the same order, the values of `C=CCn1c(C)cc(C2=NN=C(NC(C)(C)C)SC2)c1C` are 0.38 µM and 6.44.
For `O=C(Nc1ccc2c(c1)OCO2)C1CCN(Cn2nc3n(c2=O)CCCCC3)CC1`, the IC90 was > 10 µM. The pIC50 under setting [1] was < 5.00.
`CC(=O)N(c1nc(/C=C/C(=O)c2cccc(Br)c2)cs1)c1ccc(F)cc1F`: the concentration for an effect of 90% (IC90) was > 10 µM. Also, the pIC50 (PBLUC_HILL_SLOPE 1.24, PBLUC_R_SQUARED 0.477, read-out: LUCIFERASE INFECTION ASSAY - IC50) was 5.05.
Regarding `Cc1ccc(S(=O)(=O)N2CCN(C(=O)/C=C/c3ccsc3)CC2)cc1`, the IC90 was > 10 µM. Also, the pIC50 (FFLUC_HILL_SLOPE 16.5, FFLUC_R_SQUARED 0.182, read-out: LUCIFERASE INFECTION ASSAY - IC50) was < 5.00.
`Fc1ccc(NC(=S)NC2CC3CC2C2C=CCC32)cc1` (configuration not stated): the concentration for an effect of 90% (IC90) is 8.13 µM. Moreover, the pIC50 (PBLUC_HILL_SLOPE 3.22, PBLUC_R_SQUARED 0.522, read-out: LUCIFERASE INFECTION ASSAY - IC50) was 5.39.
Consider `COc1ccccc1-c1nc2c3c(C)c(C)n(-c4ccccc4OC)c3ncn2n1`, for which the IC90 was 7.51 µM. Also, the pIC50 (HEPG2TOX_HILL_SLOPE 8.61, HEPG2TOX_R_SQUARED 0.202, PBLUC_HILL_SLOPE 3.56, PBLUC_R_SQUARED 0.654, read-out: LUCIFERASE INFECTION ASSAY - IC50) is 5.39.
With `CCCCn1c(N)c(N(CC(C)C)C(=O)CCc2ncc(-c3ccc(C)cc3)o2)c(=O)[nH]c1=O`, the IC90 is > 10 µM. The negative-log IC50 (pIC50) under setting [1] was < 5.00.
In the case of `CC(=O)Nc1ccc(Sc2ccc(S(C)(=O)=O)cc2[N+](=O)[O-])cc1`, the IC90 was > 10 µM. Further, under setting [1], the pIC50 is < 5.00.
In the case of `CC(C)c1ccc(NC(=O)CSc2nccc(-c3csc(COc4ccccc4Cl)n3)n2)cc1`, the IC90 was > 6.46 µM. Moreover, the negative logarithm of the IC50 (pIC50) under setting [1] is < 5.19.
In the case of `Cn1c(NCc2ccccc2)nc2cnc(Nc3ccc(OC(F)(F)F)cc3)cc21`, the IC90 turned out to be 3.61 µM. Further, for the setting “FFLUC_HILL_SLOPE 10.9, FFLUC_R_SQUARED 0.015, PBLUC_HILL_SLOPE 2.54, PBLUC_R_SQUARED 0.635, read-out: LUCIFERASE INFECTION ASSAY - IC50”, the pIC50 was 5.82.
Take `CCc1nn2c(=O)c(CC)c(C)[nH]c2c1-c1ccc(Cl)cc1`: the concentration for an effect of 90% (IC90) was > 10.4 µM. Also, where the note is “FFLUC_HILL_SLOPE 10.5, FFLUC_R_SQUARED 0.352, PBLUC_HILL_SLOPE 13.5, PBLUC_R_SQUARED 0.435, read-out: LUCIFERASE INFECTION ASSAY - IC50”, the negative-log IC50 (pIC50) was 5.05.
On to `CS(=O)(=O)c1ccc(-c2ccc3ncc(-c4cccc(CO)c4)n3n2)cc1`, for which the concentration for an effect of 90% (IC90) was 3.89 µM. Besides, the pIC50 (HEPG2TOX_HILL_SLOPE 2.77, HEPG2TOX_R_SQUARED 0.883, PBLUC_HILL_SLOPE 15.3, PBLUC_R_SQUARED 0.0795, read-out: LUCIFERASE INFECTION ASSAY - IC50) was 5.47.
Regarding `CC(=O)c1ccc(C#CCOC(=O)c2cccs2)s1`, the IC90 was > 11.4 µM. Besides, the pIC50 (PBLUC_HILL_SLOPE 2.26, PBLUC_R_SQUARED 0.405, read-out: LUCIFERASE INFECTION ASSAY - IC50) is 5.24.
`Clc1ccc(-c2cnc3cnc(-c4ccco4)cn23)cc1`: the IC90 is > 11.2 µM. The pIC50 (FFLUC_HILL_SLOPE 15, FFLUC_R_SQUARED 0.745, PBLUC_HILL_SLOPE 1.06, PBLUC_R_SQUARED 0.544, read-out: LUCIFERASE INFECTION ASSAY - IC50) was 5.10.
In the case of `CC(C)(C)c1ccc(Oc2ccc(/C=C/C(=O)c3ccc(NC4=NCCCS4)cc3)cc2[N+](=O)[O-])cc1`, the IC90 was > 10 µM. Moreover, the negative-log IC50 (pIC50) (PBLUC_HILL_SLOPE 13, PBLUC_R_SQUARED 0.461, read-out: LUCIFERASE INFECTION ASSAY - IC50) was 5.06.
`Cc1ccc(O)c(C(=O)c2cnc3cc4c(cc3c2)OCCO4)c1`: the IC90 stood at 0.81 µM. Besides, the negative-log IC50 (pIC50) (HEPG2TOX_HILL_SLOPE 0.914, HEPG2TOX_R_SQUARED 0.945, PBLUC_HILL_SLOPE 1.42, PBLUC_R_SQUARED 0.804, read-out: LUCIFERASE INFECTION ASSAY - IC50) was 6.76.
Turning to `CCN1C(=O)N(Cc2cccc(OC)c2)C(=O)C12CCN(Cc1cnc(-c3ccccc3)s1)CC2`, the IC90 is > 6.73 µM. For the same compound, the pIC50 (HEPG2TOX_HILL_SLOPE 2.07, HEPG2TOX_R_SQUARED 0.932, PBLUC_HILL_SLOPE 9.26, PBLUC_R_SQUARED 0.304, read-out: LUCIFERASE INFECTION ASSAY - IC50) is 5.24.
As to `CC1c2ccsc2CCN1C(=S)NC(=O)c1ccc(C(C)(C)C)cc1` (configuration not stated), the 90% effect concentration (IC90) was > 8.86 µM. Moreover, the negative-log IC50 (pIC50) (HEPG2TOX_HILL_SLOPE 0.0482, HEPG2TOX_R_SQUARED 0.0333, read-out: LUCIFERASE INFECTION ASSAY - IC50) is < 5.05.
Turning to `CC(=O)NCCCc1ccc(C(=O)Cn2cc(C(F)(F)F)ccc2=O)cc1`, the IC90 is > 10 µM. Also, the pIC50 under setting [1] is < 5.00.
In the case of `Cc1ccc(/C=C/C(=O)NC2CCCc3ccccc32)o1` (configuration not stated), the IC90 was > 10 µM. Where the note is “FFLUC_HILL_SLOPE 16.2, FFLUC_R_SQUARED 0.0896, read-out: LUCIFERASE INFECTION ASSAY - IC50”, the pIC50 is < 5.00.
For `c1ccc(-c2cc3nc(NCC4CC4)nc(NCC4CCCCC4)c3s2)cc1`, the IC90 was determined as 3.98 µM. The pIC50 (HEPG2TOX_HILL_SLOPE 9.69, HEPG2TOX_R_SQUARED 0.573, PBLUC_HILL_SLOPE 14.3, PBLUC_R_SQUARED 0.374, read-out: LUCIFERASE INFECTION ASSAY - IC50) was 5.47.
Regarding `CCOC(=O)c1sc(N)c(C#N)c1CSc1nnnn1-c1ccccc1`, the IC90 is > 10 µM. The pIC50 (HEPG2TOX_HILL_SLOPE 0.327, HEPG2TOX_R_SQUARED 0.288, read-out: LUCIFERASE INFECTION ASSAY - IC50) is < 5.00.
Take `O=C(CN1CCN(C(=O)/C=C/c2ccccc2[N+](=O)[O-])CC1)Nc1ccc(Cl)c(C(F)(F)F)c1`: the concentration for an effect of 90% (IC90) is > 10 µM. The pIC50 under setting [1] is < 5.00.
Turning to `Cc1nn(-c2ccccn2)c2nc(-c3ccc4c(c3)OCO4)ccc12`, the IC90 was > 10 µM. Moreover, under “HEPG2TOX_HILL_SLOPE 2.11, HEPG2TOX_R_SQUARED 0.932, read-out: LUCIFERASE INFECTION ASSAY - IC50”, the pIC50 was < 5.00.
Turning to `O=C(Nc1ccc(N2CCOCC2)cc1)c1cccc(-c2nn[nH]n2)c1`, the concentration for an effect of 90% (IC90) was > 10 µM. Further, under setting [1], the pIC50 is < 5.00.
Regarding `FC(F)(F)Oc1cccc(-c2ccc3ncc(-c4ccoc4)n3n2)c1`, the IC90 was > 10 µM. Under setting [1], the negative-log IC50 (pIC50) is < 5.00.
Take `Cc1cc2c(cc1C)C(NC(C)c1ccccc1)=NC(C)(C)C2` (configuration not stated): the concentration for an effect of 90% (IC90) is 4.29 µM. Besides, the pIC50 (PBLUC_HILL_SLOPE 13.3, PBLUC_R_SQUARED 0.718, read-out: LUCIFERASE INFECTION ASSAY - IC50) is 5.44.
For `COc1cc(/C=C2/C(=O)N(C)c3ccccc32)cc(OC)c1`, the IC90 is > 10 µM. For the same compound, the pIC50 under setting [1] was < 5.00.
In the case of `Fc1ccc2c(c1)/C(=N\Nc1nc3ccccc3[nH]1)CCS2`, the IC90 was > 10 µM. Further, the pIC50 (HEPG2TOX_HILL_SLOPE 6.62, HEPG2TOX_R_SQUARED 0.538, PBLUC_HILL_SLOPE 9.53, PBLUC_R_SQUARED 0.0234, read-out: LUCIFERASE INFECTION ASSAY - IC50) was 5.07.
In the case of `N#Cc1cccc(NC(=O)c2cc(-c3cccnc3)nc3c2cnn3Cc2ccccc2Cl)c1`, the IC90 is > 10 µM. For the same compound, the pIC50 under setting [1] was < 5.00.
For the compound `CNC(=O)c1ccc(S(=O)(=O)Nc2cccc(-c3nnnn3C)c2)cc1`, the concentration for an effect of 90% (IC90) was > 10 µM. Further, the pIC50 under setting [1] is < 5.00.
